These results are taken from article PMC3433420 (PLoS ONE, 2012).

The target of one assay is GRB2 SH2 domain (Homo sapiens, UniProt P62993). In words: FP saturation binding assay. Particulars: for share of the ErbB1 binding FE for GRB2: free energy from FP KDs as percentage of total receptor recruitment (Figure S16).
A further assay deals with T1, GRAP2 SH2 domain (Homo sapiens, UniProt O75791).
T1 sequence (O75791 58-149 limits assumed): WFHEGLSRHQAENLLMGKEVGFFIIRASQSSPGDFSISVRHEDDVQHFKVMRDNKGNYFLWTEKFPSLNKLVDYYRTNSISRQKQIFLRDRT
In words: FP saturation binding assay. Particulars: for share of the ErbB1 binding FE for GRAP2: free energy from FP KDs as percentage of total receptor recruitment (Figure S16).

A further assay deals with T2, HSH2D SH2 domain (Homo sapiens, UniProt Q96JZ2).
T2 sequence (Q96JZ2 34-125 limits assumed): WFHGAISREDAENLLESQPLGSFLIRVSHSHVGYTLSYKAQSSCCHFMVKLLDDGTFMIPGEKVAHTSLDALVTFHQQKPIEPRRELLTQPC
As to the kind of experiment: FP saturation binding assay.

Assay [1] has as its target T3, PLCG1-NC tandem SH2 domains (Homo sapiens, UniProt P19174).
T3 construct: the tandem protein was included in our analysis with all internal amino acids linking the domains; 6X His; thioredoxin; made in house; host or cells: E. coli BL21(DE3)pLysS
T3 sequence (P19174 550-756 limits assumed): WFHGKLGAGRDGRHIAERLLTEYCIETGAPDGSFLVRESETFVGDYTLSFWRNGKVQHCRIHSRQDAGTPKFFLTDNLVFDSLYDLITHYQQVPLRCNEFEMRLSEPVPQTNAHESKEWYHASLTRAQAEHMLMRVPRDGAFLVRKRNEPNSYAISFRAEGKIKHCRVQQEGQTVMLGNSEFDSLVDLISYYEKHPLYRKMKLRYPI
In words: FP saturation binding assay. To be noted: Protein PLCG1-NC; FP saturation binding, high-confidence ErbB interactions; mean over replicate hits.

In the next assay the target is T4, SH2D1A SH2 domain (Homo sapiens, UniProt O60880).
T4 sequence (O60880 6-104 limits assumed): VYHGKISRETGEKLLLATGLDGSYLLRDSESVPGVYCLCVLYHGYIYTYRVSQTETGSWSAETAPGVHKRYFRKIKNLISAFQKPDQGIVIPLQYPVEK
As to the kind of experiment: FP saturation binding assay.

For another assay, the target named is SH2 and PTB domains. Particulars: ref Jones et al. 2006 / Kaushansky et al. Mol Biosys 2008 / Kaushansky et al. Chem and Biol 2008, cited from earlier work. An excerpt:
Supplement pone.0044471.s022.xlsx, sheet "Most recent PM interactions" | column: Kd || Supplement pone.0044471.s022.xlsx, sheet "All original PM interactions" | column: Kd

The target in the next assay is T5, PTK6 SH2 domain (Homo sapiens, UniProt Q13882).
T5 construct: from the PTK6 SH2 domain; 6X His; thioredoxin; made in house; host or cells: E. coli BL21(DE3)pLysS
T5 sequence (Q13882 78-170 limits assumed): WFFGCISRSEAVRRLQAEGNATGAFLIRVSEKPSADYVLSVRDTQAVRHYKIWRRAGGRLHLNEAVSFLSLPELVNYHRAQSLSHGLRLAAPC
As to the kind of experiment: FP saturation binding assay. Particulars: protein PTK6; high-confidence ErbB interactions; mean of replicate hits. Put shortly: (§1)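 KD values come from least-squares fits of fluorescence polarization (ex 530, em 555 nm), corrected for thioredoxin nonspecific binding and plate baseline, with outliers pruned. Fixed 10 nM labeled peptide met a 0.002–10 µM protein series for 20 min at room temperature in HEPES/KCl/Tween/DTT buffer, pH 7.8.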

The target in another assay is T6, LCK SH2 domain (Homo sapiens, UniProt P06239).
T6 construct: 93 SH2 and 2 PTB domain-containing constructs; 6X His; thioredoxin; made in house; host or cells: E. coli BL21(DE3)pLysS
T6 sequence (P06239 127-224 limits assumed): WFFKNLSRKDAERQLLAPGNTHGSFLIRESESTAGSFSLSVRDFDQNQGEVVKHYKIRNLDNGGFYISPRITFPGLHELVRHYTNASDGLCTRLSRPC
As to the kind of experiment: FP saturation binding assay. Particulars: protein LCK; high-confidence ErbB interactions; mean of replicate hits. The procedure, abridged:
as §1

For another assay, the target named is T7, RASA1-N SH2 domain (Homo sapiens, UniProt P20936).
T7 sequence (P20936 181-272 limits assumed): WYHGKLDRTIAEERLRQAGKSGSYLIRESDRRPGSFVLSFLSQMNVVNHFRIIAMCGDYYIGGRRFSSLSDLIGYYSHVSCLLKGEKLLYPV
As to the kind of experiment: FP saturation binding assay.

A further assay has as its target T8, PIK3R3-C SH2 domain (Homo sapiens, UniProt Q92569).
T8 construct: thioredoxin; made in house; host or cells: E. coli BL21(DE3)pLysS
In words: biochemical. The class given is binding. To be noted: protein PIK3R3-C; high-confidence ErbB interactions; mean of replicate hits.

Like-named read-outs stand apart in the source and are kept apart here. Residues, ends and D or L forms follow the SMILES beside them.

Chain of GRB2 SH2 domain (P62993 60-152 limits assumed): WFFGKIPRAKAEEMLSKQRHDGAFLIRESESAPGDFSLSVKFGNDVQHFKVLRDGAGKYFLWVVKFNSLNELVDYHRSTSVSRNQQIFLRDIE

In the case of `CC(C)C[C@H](NC(=O)[C@@H]1CCCN1)C(=O)N[C@H](C(=O)N[C@@H](CS)C(=O)N[C@@H](CO)C(=O)N1CCC[C@H]1C(=O)N[C@@H](CCC(N)=O)C(=O)N1CCC[C@H]1C(=O)N[C@@H](CCC(=O)O)C(=O)N[C@@H](Cc1ccc(OP(=O)(O)O)cc1)C(=O)N[C@H](C(=O)N[C@@H](CC(N)=O)C(=O)N[C@@H](CCC(N)=O)C(=O)N1CCC[C@H]1C(=O)N[C@@H](CC(=O)O)C(=O)N[C@H](C(=O)N[C@@H](CCCNC(=N)N)C(=O)N[C@@H](CC(=O)O)C(=O)O)C(C)C)C(C)C)[C@@H](C)O` [ErbB2 1139 18-mer] (HELM PEPTIDE1{P.L.T.C.S.P.Q.P.E.[O=C([C@H](Cc1ccc(OP(=O)(O)O)cc1)N[*:1])[*:2]].V.N.Q.P.D.V.R.D}$$$$V2.0), the dissociation constant (Kd) at GRB2 SH2 domain worked out at 1.38 µM; on GRAP2 SH2 domain it was 0.56 µM; on HSH2D SH2 domain, 2.82 µM.
As to `CC(C)C[C@H](NC(=O)[C@H](Cc1ccc(OP(=O)(O)O)cc1)NC(=O)[C@H](CCC(=O)O)NC(=O)[C@@H]1CCCN1C(=O)[C@H](CC(N)=O)NC(=O)CN)C(=O)N[C@@H](CC(N)=O)C(=O)N[C@H](C(=O)N[C@H](C(=O)N[C@@H](CCC(N)=O)C(=O)N1CCC[C@H]1C(=O)N[C@H](C(=O)N[C@@H](CC(=O)O)C(=O)O)[C@@H](C)O)C(C)C)[C@@H](C)O` [ErbB1 1138 13-mer] (HELM PEPTIDE1{G.N.P.E.[O=C([C@H](Cc1ccc(OP(=O)(O)O)cc1)N[*:1])[*:2]].L.N.T.V.Q.P.T.D}$$$$V2.0), the dissociation constant Kd in assay [1] came out at 5.35 µM; at SH2D1A SH2 domain it was 9.44 µM; on GRAP2 SH2 domain it was 4.82 µM; on HSH2D SH2 domain it was 3.41 µM.
On to GNPEpYLNTVQPTd [ErbB1 pY1138], for which the Kd at SH2 and PTB domains (protein ABL2) was 0.085 µM; on SH2 and PTB domains (protein GRB2), 0.72 µM; on SH2 and PTB domains (protein ITK) it was 1.76 µM; at SH2 and PTB domains (protein NCK2) it was 0.33 µM; at SH2 and PTB domains (protein PIK3R1-NC), 1.57 µM; on SH2 and PTB domains (protein PIK3R2-N), 0.76 µM. The Kd was 0.86 µM at SH2 and PTB domains (protein PIK3R2-NC); 0.84 µM on SH2 and PTB domains (protein PIK3R3-N); 1.69 µM on SH2 and PTB domains (protein PIK3R3-NC); 0.39 µM at SH2 and PTB domains (protein RASA1-N); 0.13 µM on SH2 and PTB domains (protein SHC1-PTB); 0.37 µM at SH2 and PTB domains (protein VAV2). Moreover, the Kd at SH2 and PTB domains (protein ZAP70-NC) was 1.14 µM. Also, the “share of the ErbB1 binding FE for GRB2” value on GRB2 SH2 domain amounted to 50%. Moreover, the “share of the ErbB1 binding FE for GRAP2” value at GRAP2 SH2 domain is given as 50%.
With PVPEpYINQSVPKd [ErbB1 pY1092], the Kd at SH2 and PTB domains (protein ABL1) was 0.92 µM; on SH2 and PTB domains (protein ABL2), 0.15 µM; at SH2 and PTB domains (protein BLK), 0.3 µM; on SH2 and PTB domains (protein GRB2) it was 0.2 µM; on SH2 and PTB domains (protein GRB10) it was 1.3 µM; at SH2 and PTB domains (protein ITK), 0.22 µM. Besides, the Kd at SH2 and PTB domains (protein NCK2) was 1.1 µM; on SH2 and PTB domains (protein PIK3R1-N), 1.08 µM; on SH2 and PTB domains (protein PIK3R1-NC), 0.67 µM; at SH2 and PTB domains (protein PIK3R2-N), 0.45 µM; at SH2 and PTB domains (protein PIK3R2-NC), 1.41 µM; on SH2 and PTB domains (protein PIK3R3-N), 0.51 µM. Further, the equilibrium dissociation constant (Kd) at SH2 and PTB domains (protein PIK3R3-NC) was 1.02 µM; at SH2 and PTB domains (protein PLCG2-NC), 1.63 µM; on SH2 and PTB domains (protein RASA1-N), 0.18 µM; at SH2 and PTB domains (protein SRC), 1.79 µM; on SH2 and PTB domains (protein SYK-C), 1.92 µM; at SH2 and PTB domains (protein SYK-NC), 0.91 µM. For the same compound, the Kd on SH2 and PTB domains (protein VAV2) was 0.54 µM; at SH2 and PTB domains (protein YES1), 0.34 µM. Also, the “share of the ErbB1 binding FE for GRB2” value at GRB2 SH2 domain is 50%. In addition, on GRAP2 SH2 domain, the “share of the ErbB1 binding FE for GRAP2” value worked out at 50%.
As for `CC(C)C[C@H](NC(=O)[C@H](CO)NC(=O)[C@H](Cc1c[nH]cn1)NC(=O)[C@H](CC(N)=O)NC(=O)[C@H](Cc1c[nH]c2ccccc12)NC(=O)[C@H](Cc1ccc(OP(=O)(O)O)cc1)NC(=O)[C@H](CC(=O)O)NC(=O)[C@@H]1CCCN1C(=O)[C@H](CC(N)=O)NC(=O)[C@@H](N)CC(=O)O)C(=O)N1CCC[C@H]1C(=O)N1CCC[C@H]1C(=O)N[C@@H](CC(=O)O)C(=O)O` [ErbB4 1242 13-mer] (HELM PEPTIDE1{D.N.P.D.[O=C([C@H](Cc1ccc(OP(=O)(O)O)cc1)N[*:1])[*:2]].W.N.H.S.L.P.P.D}$$$$V2.0), the dissociation constant Kd on PTK6 SH2 domain is 2.76 µM; at LCK SH2 domain, 4.46 µM; at RASA1-N SH2 domain, 5.03 µM; at HSH2D SH2 domain, 7.37 µM; on PIK3R3-C SH2 domain it was 8.29 µM.
